Laboratory results published in US5149711A, “2-cyclopentenone derivatives” (Teijin Limited, priority 1988, dated 1992).
≈ marks a conversion by molar mass, not a printed value.

Experiments:
[1] = test system: L1210 leukemia cells; test: Measurement of the action of inhibiting proliferation of L1210 leukemia cell; type: cell-based; settings: Mus musculus, L1210, 96 h; RPMI medium with 10% FCS, 37° C., 4 days, trypan blue count of surviving cells
Method: (1) Measurement of the action of inhibiting Proliferation of L1210 leukemia cell
L1210 leukemia cells were added to an RPMI medium containing 10% FCS (fetal calf serum), and the concentration of the cells was adjusted to […]. Each of the test compounds shown in Table I was dissolved in 99.5% ethanol. Prior to use, the final concentration of the ethanol solution was adjusted to less than 0.1%, and it was added to the culture medium. The culture medium was then maintained at 37° C. in a stationary condition for 4 days. After the cultivation, the number of surviving cells was measured by dyeing with trypan blue. As a control, 0.1% ethanol was used. A dose-reaction curve plotted from the ratios of proliferation against the control, and IC50 was determined.

[2] = test system: P388 mouse leukemia cells; test: Measurement of the antitumor effect on P388 mouse leukemia tumor (increase of life span); type: in vivo; settings: intraperitoneal, 9 days, BDF1 mice
Method: (2) Measurement of the antitumor effect on P338 mouse leukemia tumor
1×10^6 P388 mouse leukemia cells were intraperitoneally administered to BDF1 mice. After the lapse of 24 hours, each of the test compounds shown in Table II was intraperitoneally administered to the mice for 9 days. The periods of survival of these animals were examined and the increase of their life span (ILS %) was determined.

[3] = test system: B16 melanoma; test: Measurement of the antitumor effect on B16 melanoma mouse tumor (tumor weight); type: in vivo; settings: intraperitoneal, day 1-9, tumor weight on day 18, BDF1 mice
Method: (3) Measurement of the antitumor effect on B16 melanoma mouise tumor
For B16 melanoma, BDF1 mice were implanted subcutaneously with 0.2 ml of a 10% tumor homogenate in saline in the left flank. The test compounds were each given intraperitoneally on day 1-9. The activity was assessed by measuring the tumor weight on day 18.

In the case of `CC(=O)OC[C@@H](OC(C)=O)[C@H](/C=C/C=C1C(=O)C=CC1(O)CCCCOc1ccccc1)OC(C)=O` (stereo partly drawn) [5-[(4S,5R)-4,5,6-triacetoxy-2-hexenylidene]-4-(4-phenoxybutyl)-4-hydroxy-2-cyclopentenone], the IC50 [1] is reported as 0.1 µg/mL (≈ 0.2 µM).

In the case of `O=C1C=CC(O)(CCCCOc2ccccc2)C1=C/C=C/[C@H](O)[C@H](O)CO` (stereo partly drawn) [5-[(4S,5R)-4,5,6-trihydroxy-2-hexenylidene]-4-(4-phenoxybutyl)-4-hydroxy-2-cyclopentenone], the “increase of life span (ILS)” value ([2]; 5 mg/kg/day) is reported as 24.5%, the “increase of life span (ILS)” value ([2]; 10 mg/kg/day) is reported as 32.7% and the “increase of life span (ILS)” value ([2]; 20 mg/kg/day) is reported as 44.9%. It also gave an IC50 [1] of 0.8 µg/mL (≈ 2.14 µM).

`CC(=O)OC[C@@H](O)[C@H](/C=C/C=C1C(=O)C=CC1(O)CCCCOc1ccccc1)OC(C)=O` (stereo partly drawn) [5-[(4S,5R)-4,6-diacetoxy-5-hydroxy-2-hexenylidene]-4-(4-phenoxybutyl)-4-hydroxy-2-cyclopentenone] was tested, and the IC50 [1] was 0.2 µg/mL (≈ 0.436 µM), the Proliferation inhibitory rate ([3]; 5 mg/kg/day) was 9.6% and the Proliferation inhibitory rate ([3]; 10 mg/kg/day) was 45.5%.

For `O=C1C=CC(O)(CCCCOc2ccccc2)/C1=C\C=C\C(O)CCCO` (stereo not shown) [5-[(E)-4,7-dihydroxy-(2E)-heptenylidene]-4-(4-phenoxybutyl)-4-hydroxy-2-cyclopentenone, reference compound], the “increase of life span (ILS)” value ([2]; 5 mg/kg/day) was 21.4%, the “increase of life span (ILS)” value ([2]; 10 mg/kg/day) was 31.2% and the “increase of life span (ILS)” value ([2]; 20 mg/kg/day) was -69.2%. For the same compound, the Proliferation inhibitory rate ([3]; 5 mg/kg/day) was -13.5% and the Proliferation inhibitory rate ([3]; 10 mg/kg/day) was 32.7%.
